In ChEMBL document CHEMBL5096127, “Using ChEMBL to complement schistosome drug discovery” (2023):
Calls of active or inactive are those of the source. The rule behind the calls is not given here.

Columns and labels:
Schistosoma mansoni [1] = assay: In vitro activity on S. mansoni schistosomula at 10 uM; format: functional, organism-based; design: test concentration 10 uM, temperature 37 degree C, time incubation 72 h; conditions: Puerto Rican
Schistosoma mansoni [2] = assay: In vitro activity on S. mansoni schistosomula at 50 uM; format: functional, organism-based; design: test concentration 50 uM, temperature 37 degree C, time incubation 72 h; conditions: Puerto Rican
Schistosoma mansoni [3] = format: functional, Puerto Rican; conditions: temperature 37 degree C; tested at 10 uM; Worm movement inhibition (compared to DMSO control)_lower value 0 %; Worm movement inhibition (compared to DMSO control)_upper value 100 %
Schistosoma mansoni [4] = assay: EC50 on S. mansoni schistosomula; format: functional, organism-based; conditions: Puerto Rican
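Throughout, for Worm movement inhibition: in vitro assay using adult worms.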

| Compound | In vitro activity (Schistosoma mansoni [1]) | In vitro activity (Schistosoma mansoni [2]) | Worm movement inhibition (Schistosoma mansoni [3]) [%] | EC50 (Schistosoma mansoni [4]) [µM] |
| --- | --- | --- | --- | --- |
| CC[C@H](C)[C@H](NC(=O)[C@H]([C@@H](C)CC)N(C)C(C)=O)C(=O)N[C@H](C(=O)N[C@@H](CC(C)C)C(=O)[C@@]1(C)CO1)[C@@H](C)O [EPOXOMYCIN] | Active | Active | 97.15 | 0.226 |
| Cc1[nH]c(/C=C2\C(=O)Nc3ccc(S(=O)(=O)Cc4c(Cl)cccc4Cl)cc32)c(C)c1C(=O)N1CCC[C@@H]1CN1CCCC1 [PHA-665752] | Active | Active | 99.71 | 4.51 |
| CC1(C)CC(=O)c2c(C(F)(F)F)nn(-c3ccc(C(N)=O)c(N[C@H]4CC[C@H](O)CC4)c3)c2C1 [SNX-2112] | Active | Active | 25.47 | 1.94 |
| OCCCNc1cc(-c2ccnc(Nc3cccc(Cl)c3)n2)ccn1 | Active | Active | 98.94 | 0.41 |
| COc1cc(N2CCC(N3CCN(C)CC3)CC2)ccc1Nc1ncc(Cl)c(Nc2ccccc2S(=O)(=O)C(C)C)n1 [TAE-684] | Active | Active | 99.53 | 2.4 |
| CC(/C=C/C(=O)NO)=C\[C@@H](C)C(=O)c1ccc(N(C)C)cc1 [TRICHOSTATIN] | Active | Active | 8.13 | 0.558 |
| CNc1ncc2cc(-c3ccc(-c4cccc(C)n4)cc3Cl)c(=O)n(C[C@H]3OC[C@H](N)CO3)c2n1 | Active | Active | 98.47 | 2.84 |
| C[C@@H]1C[C@H]2O[C@@H]2/C=C\C=C\C(=O)Cc2c(Cl)c(O)cc(O)c2C(=O)O1 [RADICICOL] | Active | Active | 82.43 | 1.83 |
| COc1ccc(-c2nc(N3CCOCC3)c3sc(CN(C)c4ncc(C(=O)NO)cn4)cc3n2)cn1 [FIMEPINOSTAT] | Active | Active | 56.87 | 0.606 |
| Cl.Cl.O=C(NCCCNc1nc(Nc2cccc(CN3CCOCC3)c2)ncc1C1CC1)C1CCC1 | Active | Active | 97.58 | 3.13 |
| CCNC(=O)c1cc2c(-c3cc(OCCN4CCCC4)c(Cl)cc3Cl)nc(N)nc2s1 | Active | Active | 91.33 | 0.547 |
| Cc1cccc(-c2nc(Nc3ccncc3)c3ccccc3n2)n1 | Active | Active | 40.28 | 2.62 |
| COc1cc(N2CCN(C)CC2)ccc1Nc1nccc(-c2cn(C)c3cnccc23)n1 | Active | Active | 93.2 | 3.4 |
| Cc1n[nH]c2ccc(-c3cncc(OC[C@@H](N)Cc4ccccc4)c3)cc12 | Active | Active | 93.77 | 2.93 |
| CCNC(=O)c1noc(-c2cc(C(C)C)c(O)cc2O)c1-c1ccc(CN2CCOCC2)cc1 [LUMINESPIB] | Active | Active | 40.22 | 0.194 |
